Data: patent US9339503B2, “Tetrahydro-quinazolinone derivatives as TANK and PARP inhibitors” (MERCK PATENT GMBH, priority 2012, dated 2016)

Experiments:
[1] = target: T1, GST-tagged Tankyrase-2 (873-1166 aa) (Homo sapiens, UniProt Q9H2K2); test: Tankyrase 2 autoparsylation assay (HTRF enzyme assay); type: biochemical
T1 construct: GST-tagged Tankyrase-2 (873-1166 aa)
Experimental: (§1) The autoparsylation assay was run in two steps: the enzymatic reaction in which GST-tagged Tankyrase-1, resp Tankyrase-2 transferred biotinylated ADP-ribose to itself from biotinylated NAD as co-substrate and the detection reaction where a time resolved FRET between cryptate labelled anti-GST bound to the GST tag of the enzyme and Xlent® labelled-streptavidin bound the biotin-parsylation residue was analysed. The autoparsylation activity was detectable directly via the increase in HTRF signal.
(§2) The autoparsylation assay was performed as 384-well HTRF® (Cisbio, Codolet, France) assay format in Greiner low volume nb 384-well microtiter plates and was used for high throughput screen. 250 nM GST-tagged Tankyrase-1 (1023-1327 aa), respectively about 250 nM GST-tagged Tankyrase-2 (873-1166 aa) and 5 μM bio-NAD (Biolog, Life science Inst., Bremen, Germany) as co-substrate were incubated in a total volume of 5 μl (50 mM HEPES, 4 mM Mg-chloride, 0.05% Pluronic F-68, 1.4 mM DTT, 0.5% DMSO, pH 7.7) in the absence or presence of the test compound (10 dilution concentrations) for 90 min at 30° C. The reaction was stopped by the addition of 1 μl 50 mM EDTA solution. 2 μl of the detection solution (1.6 μM SA-Xlent® (Cisbio, Codolet, France), 7.4 nM Anti-GST-K® (Eu-labelled anti-GST, Cisbio, Codolet, France) in 50 mM HEPES, 800 mM KF, 0.1% BSA, 20 mM EDTA, 0.1% CHAPS, pH 7.0) were added. After 1 h incubation at room temperature the HTRF was measured with an Envision multimode reader (Perkin Elmer LAS Germany GmbH) at excitation wavelength 340 nm (laser mode) and emission wavelengths 615 nm and 665 nm. The ratio of the emission signals was determined. The full value used was the inhibitor-free reaction. The pharmacological zero value used was XAV-939 (Tocris) in a final concentration of 5 μM. The inhibitory values (IC50) were determined using either the program Symyx Assay Explorer® or Condosseo® from GeneData.

[2] = target: T2, GST-tagged Tankyrase-1 (1023-1327 aa) (Homo sapiens, UniProt O95271); test: Tankyrase 1 autoparsylation assay (HTRF enzyme assay); type: biochemical
T2 construct: GST-tagged Tankyrase-1 (1023-1327 aa)
Experimental: as §1, §2

tankyrase 1/2 = test: Measurement of cellular inhibition of tankyrase (Axin2 level, Luminex based assay, DLD1 cells); conditions: 24 hours, increase of Axin2 level, read-out: EC50 tankyrase 1/2 (cell assay)
Experimental: Measurement of Cellular Inhibition of Tankyrase
Since Tankyrases have been described to modulate cellular level of Axin2 (Huang et al., 2009; Nature) the increase of Axin2 level is used as read-out for determination of cellular inhibition of Tankyrases in a Luminex based assay.
Cells of the colon carcinoma cell line DLD1 are plated in 96 well plates with 1.5×10^4 cells per well. Next day, cells are treated with a serial-dilution of test compound in seven steps as triplicates with a final DMSO concentration of 0.3%. After 24 hours, cells are lysed in lysis buffer (20 mM Tris/HCl pH 8.0, 150 mM NaCl, 1% NP40, 10% Glycerol) and lysates are cleared by centrifugation through a 96 well filter plate (0.65 μm). Axin2 protein is isolated from cell lysates by incubation with a monoclonal anti-Axin2 antibody (R&D Systems #MAB6078) that is bound to fluorescent carboxybeads. Then, bound Axin2 is specifically detected with a polyclonal anti-Axin2 antibody (Cell Signaling #2151) and an appropriate PE-fluorescent secondary antibody. The amount of isolated Axin2 protein is determined in a Luminex^200 machine (Luminex Corporation) according to the manufacturer's instruction by counting 100 events per well. […] For analysis, the obtained data were normalized against the untreated solvent control and fitted for determination of the EC50 values using the Assay Explorer software (Accelrys).

His-tagged Parp-1 = target: T3, His-tagged Parp-1 (Homo sapiens, UniProt P09874); test: PARP-1 autoparsylation assay (HTRF); type: biochemical; conditions: read-out: IC50 PARP1
T3 construct: purchased Enzo Life Sciences GmbH, Lörrach, Germany
Experimental: Biochemical Activity Testing of PARP-1: Autoparsylation Assay
as §1, with “His-tagged Parp-1” for “GST-tagged Tankyrase-1, resp Tankyrase-2”, “ADP-ribose/ADP-ribose” for “ADP-ribose”, “NAD/NAD” for “NAD”, “anti-His antibody” for “anti-GST”, “His” for “GST”
The autoparsylation assay was performed as 384-well HTRF® (Cisbio, Codolet, France) assay format in Greiner low volume nb 384-well microtiter plates. 35 nM His-tagged Parp-1 (human, recombinant, Enzo Life Sciences GmbH, Lörrach, Germany) and a mixture of 125 nM bio-NAD (Biolog, Life science Inst., Bremen, Germany) and 800 nM NAD as co-substrate were incubated in a total volume of 6 μl (100 mM Tris/HCl, 4 mM Mg-chloride, 0.01% IGEPAL® CA630, 1 mM DTT, 0.5% DMSO, pH 8, 13 ng/μl activated DNA (BPS Bioscience, San Diego, US)) in the absence or presence of the test compound (10 dilution concentrations) for 150 min at 23° C. The reaction was stopped by the addition of 4 μl of the Stop/detection solution (70 nM SA-Xlent® (Cisbio, Codolet, France), 2.5 nM Anti-His-K® (Eu-labelled anti-His, Cisbio, Codolet, France) in 50 mM HEPES, 400 mM KF, 0.1% BSA, 20 mM EDTA, pH 7.0). After 1 h incubation at room temperature the HTRF was measured with an Envision multimode reader (Perkin Elmer LAS Germany GmbH) at excitation wavelength 340 nm (laser mode) and emission wavelengths 615 nm and 665 nm. The ratio of the emission signals was determined. The full value used was the inhibitor-free reaction. The pharmacological zero value used was Olaparib (LClabs, Woburn, US) in a final concentration of 1 μM. The inhibitory values (IC50) were determined using either the program Symyx Assay Explorer® or Condosseo® from GeneData.

T2 sequence (O95271 1023-1327): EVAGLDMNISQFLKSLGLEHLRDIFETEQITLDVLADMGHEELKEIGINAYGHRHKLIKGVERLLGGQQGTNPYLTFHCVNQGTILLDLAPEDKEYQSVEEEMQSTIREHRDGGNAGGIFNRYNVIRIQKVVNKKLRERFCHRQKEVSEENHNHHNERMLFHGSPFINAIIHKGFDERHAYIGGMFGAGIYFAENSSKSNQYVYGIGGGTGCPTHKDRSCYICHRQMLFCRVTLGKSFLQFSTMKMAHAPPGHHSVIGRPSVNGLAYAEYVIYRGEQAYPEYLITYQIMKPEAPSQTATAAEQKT
T3 sequence (P09874 whole entry): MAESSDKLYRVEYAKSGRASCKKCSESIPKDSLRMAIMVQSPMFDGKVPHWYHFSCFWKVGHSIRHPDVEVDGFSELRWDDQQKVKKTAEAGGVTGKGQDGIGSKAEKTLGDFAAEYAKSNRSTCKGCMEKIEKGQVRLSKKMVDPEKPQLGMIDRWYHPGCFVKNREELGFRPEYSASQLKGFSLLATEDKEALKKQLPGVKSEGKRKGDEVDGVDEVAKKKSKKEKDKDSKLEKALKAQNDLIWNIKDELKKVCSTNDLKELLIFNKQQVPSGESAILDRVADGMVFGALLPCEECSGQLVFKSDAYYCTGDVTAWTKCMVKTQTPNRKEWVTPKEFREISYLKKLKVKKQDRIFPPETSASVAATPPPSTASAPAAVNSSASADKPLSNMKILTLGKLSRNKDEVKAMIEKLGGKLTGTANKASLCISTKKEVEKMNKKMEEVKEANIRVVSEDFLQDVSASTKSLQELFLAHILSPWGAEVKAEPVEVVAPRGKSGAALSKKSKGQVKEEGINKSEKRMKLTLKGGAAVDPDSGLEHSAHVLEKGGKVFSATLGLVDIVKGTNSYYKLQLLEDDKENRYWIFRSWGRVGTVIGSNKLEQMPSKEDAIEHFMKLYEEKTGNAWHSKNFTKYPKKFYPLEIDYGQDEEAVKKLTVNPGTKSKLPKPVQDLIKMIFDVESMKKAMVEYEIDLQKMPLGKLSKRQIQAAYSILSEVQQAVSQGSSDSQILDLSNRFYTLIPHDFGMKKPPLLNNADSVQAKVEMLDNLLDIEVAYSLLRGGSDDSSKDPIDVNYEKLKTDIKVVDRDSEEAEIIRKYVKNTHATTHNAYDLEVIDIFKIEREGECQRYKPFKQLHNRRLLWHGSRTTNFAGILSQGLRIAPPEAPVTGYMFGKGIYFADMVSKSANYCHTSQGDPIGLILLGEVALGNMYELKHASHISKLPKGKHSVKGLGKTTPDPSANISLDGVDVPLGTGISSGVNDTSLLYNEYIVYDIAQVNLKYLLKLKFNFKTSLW
T1 sequence (Q9H2K2 873-1166): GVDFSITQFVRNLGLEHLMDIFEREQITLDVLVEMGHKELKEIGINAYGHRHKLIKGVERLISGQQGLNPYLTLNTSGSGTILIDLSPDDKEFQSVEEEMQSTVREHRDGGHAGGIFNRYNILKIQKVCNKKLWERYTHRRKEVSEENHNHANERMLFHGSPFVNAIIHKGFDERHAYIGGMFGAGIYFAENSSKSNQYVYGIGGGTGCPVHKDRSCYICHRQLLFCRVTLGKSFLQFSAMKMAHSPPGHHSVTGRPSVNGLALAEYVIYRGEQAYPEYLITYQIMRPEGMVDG

Row | Structure (SMILES) | IC50 [1] [nM] | IC50 [2] [nM] | EC50 (tankyrase 1/2) [nM] | IC50 (His-tagged Parp-1) [nM]
1 | O=c1[nH]c(N2CCN(c3ccc(F)cc3)CC2)nc2c1CCCC2 [Compound A6, 2-[4-(4-Fluorophenyl)piperazin-1-yl]-5,6,7,8-tetrahydro-3H-quinazolin-4-one] | 300 to 3000 | 300 to 3000 | 300 to 3000 | 300 to 3000
2 | COc1cc(F)ccc1N1CCN(c2nc3c(c(=O)[nH]2)CCCC3)CC1 [Compound A36, 2-[4-(4-fluoro-2-methoxy-phenyl)piperazin-1-yl]-5,6,7,8-tetrahydro-3H-quinazolin-4-one] | 300 to 3000 | < 300 | 300 to 3000 | 300 to 3000
3 | COc1cccc(N2CCN(c3nc4c(c(=O)[nH]3)CCCC4)CC2)c1 [Compound A7, 2-[4-(3-Methoxyphenyl)piperazin-1-yl]-5,6,7,8-tetrahydro-3H-quinazolin-4-one] | 300 to 3000 | < 300 | 300 to 3000 | 300 to 3000
4 | COc1ccc(N2CCN(c3nc4c(c(=O)[nH]3)CCCC4)CC2)cc1 [Compound A3, 2-[4-(4-methoxy-phenyl)-piperazin-1-yl]-5,6,7,8-tetrahydro-3H-quinazolin-4-one] | 300 to 3000 | 300 to 3000 | 300 to 3000 | < 300
5 | N#Cc1ccccc1N1CCN(c2nc3c(c(=O)[nH]2)CCCC3)CC1 [Compound A33, 2-[4-(4-oxo-5,6,7,8-tetrahydro-3H-quinazolin-2-yl)piperazin-1-yl]benzonitrile] | 300 to 3000 | < 300 | 300 to 3000 | 300 to 3000
6 | COc1ccccc1N1CCN(c2nc3c(c(=O)[nH]2)CCCC3)CC1 [Compound A12, 2-[4-(2-Methoxyphenyl)piperazin-1-yl]-5,6,7,8-tetrahydro-3H-quinazolin-4-one] | 300 to 3000 | < 300 | 300 to 3000 | 300 to 3000
7 | O=c1[nH]c(N2CCN(c3ccccc3Cl)CC2)nc2c1CCCC2 [Compound A9, 2-[4-(2-Chlorophenyl)piperazin-1-yl]-5,6,7,8-tetrahydro-3H-quinazolin-4-one] | 300 to 3000 | < 300 | 300 to 3000 | 300 to 3000
